# Measurements as given in paper PMC2824700, “Genetic analysis of the Staphylococcus epidermidis Macromolecular Synthesis Operon: Serp1129 is an ATP binding protein and sigA transcription is regulated by both σ^A- and σ^B-dependent promoters” (BMC Microbiology, 2010).
# Target: T1, Serp1129 (Staphylococcus epidermidis, UniProt Q5HNY5)
# T1 construct: full ORF in pET30a+ (NcoI/BamHI), His-tagged, E. coli BL21(DE3), HisTrap purified
# T1 sequence (Q5HNY5 1-272): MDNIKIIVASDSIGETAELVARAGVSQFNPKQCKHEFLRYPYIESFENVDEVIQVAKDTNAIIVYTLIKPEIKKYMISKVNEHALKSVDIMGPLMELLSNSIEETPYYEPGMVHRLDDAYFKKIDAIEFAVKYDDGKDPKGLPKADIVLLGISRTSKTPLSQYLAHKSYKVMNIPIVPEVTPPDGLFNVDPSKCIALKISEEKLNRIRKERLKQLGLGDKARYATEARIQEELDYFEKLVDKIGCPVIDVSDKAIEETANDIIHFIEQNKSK
# Assay: competition against biotinylated azidoanilide GTP photoaffinity label, streptavidin blot
# Type: binding
# Details: 5-30 uM unlabeled GTP versus 1 uM labelled analogue; 25 °C, 30 s, then UV 254 nm
structure (smiles),measurement,value
Nc1nc2c(ncn2[C@@H]2O[C@H](COP(=O)(O)OP(=O)(O)OP(=O)(O)O)[C@@H](O)[C@H]2O)c(=O)[nH]1 [GTP],"competition against biotinylated azidoanilide GTP photoaffinity label, streptavi",A similar pattern was observed when GTP binding reactions were performed
